# Assays:
# HCT-116 = assay: In vitro MTT (proliferation) assay; type: cell-based; conditions: Homo sapiens, HCT116 cell line, colon, MTT, read-out: HCT116 IC50
# Procedure: (§1) The inhibitions of Compound A-Xln, Compound A-P-Xln and two chiral isomers (Compound R-A, Compound S-A) to cancer cell lines are tested via in vitro MTT assay. Cancer cell lines are selected from PANC-1, NCI-H157, MDA-MB-231, Hela, PC-3, BEL7404, MKN45, Ishikawa, Saos-2, SKOV3, SW579 and HCT116 cell lines. The IC50 values are in the micromole scale.
# (§2) In vitro MTT (proliferation) assay was performed with compound from above examples to give following inhibition results: […]
# Ishikawa = assay: In vitro MTT (proliferation) assay; type: cell-based; conditions: Homo sapiens, Ishikawa cell line, endometrial
# Procedure: as §1, §2
# MDA-MB-231 = assay: In vitro MTT (proliferation) assay; type: cell-based; conditions: Homo sapiens; MDA-MB-231 cell line, breast; MTT; read-out: MDA-MB-231 IC50
# Procedure: as §1, §2
# PC-3 = assay: In vitro MTT (proliferation) assay; type: cell-based; conditions: Homo sapiens, PC-3 cell line, prostate
# Procedure: as §1, §2
# PANC-1 = assay: In vitro MTT (proliferation) assay; type: cell-based; conditions: Homo sapiens, PANC-1 cell line, pancreas
# Procedure: as §1, §2
# MKN45 = assay: In vitro MTT (proliferation) assay; type: cell-based; conditions: Homo sapiens, MKN-45, MKN45 cell line, breast (so in the source)
# Procedure: as §1, §2
# SW579 = assay: In vitro MTT (proliferation) assay; type: cell-based; conditions: SW579 cell line, thyroid
# Procedure: as §1, §2
# NCI-H157 = assay: In vitro MTT (proliferation) assay; type: cell-based; conditions: Homo sapiens, NCI-H157 cell line, lung
# Procedure: as §1, §2
# Hela = assay: In vitro MTT (proliferation) assay; type: cell-based; conditions: Homo sapiens; Hela cell line, ovary (so in the source); MTT; read-out: Hela IC50
# Procedure: as §1, §2
# Saos-2 = assay: In vitro MTT (proliferation) assay; type: cell-based; conditions: Homo sapiens, Saos-2 cell line, sarcoma
# Procedure: as §1, §2
# BEL7404 = assay: In vitro MTT (proliferation) assay; type: cell-based; conditions: Homo sapiens, BEL-7404, BEL7404 cell line, ovary (so in the source)
# Procedure: as §1, §2
# SKOV3 = assay: In vitro MTT (proliferation) assay; type: cell-based; conditions: Homo sapiens, SK-OV-3; SKOV3 cell line, ovary; MTT; read-out: SKOV3 IC50
# Procedure: as §1, §2
# [1] = Stability of amorphous and crystalline form API at 60° C. (HPLC related substances); type: physicochemical
# Procedure: The samples of amorphous and crystalline form API of Compound A were placed in clean containers and the environmental temperature was controlled at 60° C. The purity of amorphous (Compound A-Amp) and crystalline form (Compound A-Xln) of Compound A were tested at Day 0, Day 10 and Day 30. Samples of amorphous and crystalline form APIs were measured, and the appropriate amount of diluent was added to dissolve with sonication. The concentration was controlled at 0.2 mg/ml and the purification was determined by HPLC with UV detector at 230 nm. Results were listed in the table as follows and the fitted curve is in Drawing Sections as FIG. 6.
# Water solubility = type: physicochemical
# [2] = high temperature 60° C., 10 days
# [3] = high temperature 60° C., 30 days
IC50 (HCT-116),IC50 (MDA-MB-231),IC50 (PC-3),IC50 (PANC-1),IC50 (MKN45),IC50 (SW579),IC50 (NCI-H157),IC50 (Hela),IC50 (BEL7404),IC50 (SKOV3),SMILES,IC50 (Ishikawa),IC50 (Saos-2),Maximum impurities (%) ([1]; 0 day),Total impurities (%) ([1]; 0 day),"Maximum impurities (%) [1, 2]","Total impurities (%) [1, 2]","Maximum impurities (%) [1, 3]","Total impurities (%) [1, 3]",solubility (Water solubility)
883 nM,9600 nM,2750 nM,5640 nM,430 nM,906 nM,8110 nM,6690 nM,4060 nM,3710 nM,COc1cc2c(Oc3ccc4[nH]c(C)cc4c3F)ccnc2cc1OCCN1C[C@H](O)C2(CC2)C1 [Compound R-A],4610 nM,3080 nM,,,,,,,
,,,,,,,,,,"COc1cc2c(Oc3ccc4[nH]c(C)cc4c3F)ccnc2cc1OCCN1CC(O)C2(CC2)C1 (stereo not shown) [Compound A-Amp, 5-(2-(4-(4-fluoro-2-methyl-1H-indol-5-yloxy)-6-methoxyquinolin-7-yloxy)ethyl)-5-azaspiro[2.4]-heptan-7-ol]",,,0.075%,0.26%,0.191%,0.323%,0.327%,0.583%,
,,,,,,,,,,"COc1cc2c(Oc3ccc4[nH]c(C)cc4c3F)ccnc2cc1OCCN1CC(O)C2(CC2)C1 (stereo not shown) [Compound A-P, 5-(2-(4-(4-fluoro-2-methyl-1H-indol-5-yloxy)-6-methoxyquinolin-7-yloxy)ethyl)-5-azaspiro[2.4]-heptan-7-ol]",,,,,,,,,360 µg/mL
980 nM,6600 nM,5600 nM,5000 nM,320 nM,836 nM,7000 nM,6300 nM,2380 nM,7650 nM,COc1cc2c(Oc3ccc4[nH]c(C)cc4c3F)ccnc2cc1OCCN1C[C@@H](O)C2(CC2)C1 [Compound S-A],4980 nM,5350 nM,,,,,,,

SMILES,IC50 (HCT-116),IC50 (MDA-MB-231),IC50 (PC-3),IC50 (PANC-1),IC50 (MKN45),IC50 (SW579),IC50 (NCI-H157),IC50 (Hela),IC50 (BEL7404),IC50 (SKOV3),IC50 (Ishikawa),IC50 (Saos-2),Maximum impurities (%) ([1]; 0 day),Total impurities (%) ([1]; 0 day),"Maximum impurities (%) [1, 2]","Total impurities (%) [1, 2]","Maximum impurities (%) [1, 3]","Total impurities (%) [1, 3]",solubility (Water solubility)
"COc1cc2c(Oc3ccc4[nH]c(C)cc4c3F)ccnc2cc1OCCN1CC(O)C2(CC2)C1 (stereo not shown) [Compound A-P-Xln, 5-(2-(4-(4-fluoro-2-methyl-1H-indol-5-yloxy)-6-methoxyquinolin-7-yloxy)ethyl)-5-azaspiro[2.4]-heptan-7-ol]",934 nM,3930 nM,1770 nM,2750 nM,130 nM,880 nM,1610 nM,2360 nM,1750 nM,3090 nM,1480 nM,2480 nM,,,,,,,

# Reference: patent US20230399313A1, “BIOLOGICAL ACTIVITIES OF 5-(2-(4-(4-FLUORO-2-METHYL-1H-INDOL-5-YLOXY)-6-METHOXYQUINOLIN-7-YLOXY)ETHYL)-5-AZASPIRO[2.4]-HEPTAN-7-OL CRYSTALLINE, PHOSPHORIC ACID SALT AND ITS ENANTIOMERS” (Advenchen Pharmaceuticals, LLC, priority 2022, published 2023)
